Measurements as given in article PMC6933084 (Journal of medicinal chemistry, 2019).

Tests used:
WDR5 [1] = target: T1, WDR5 (Homo sapiens, UniProt P61964); assay: Thermal shift by differential scanning fluorimetry; type: binding; settings: DSF; 10 μM, or ten-point dilution for 7k
WDR5-c-MYC = WDR5-c-MYC (Homo sapiens, UniProt P61964); type: biochemical; settings: HEK293 lysates; lowest concentration tested (6.25 μM)
WDR5-RBBP5 = WDR5-RBBP5 (Homo sapiens, UniProt P61964); type: biochemical; settings: HEK293 lysates; lowest concentration tested (6.25 μM)
WDR5 [2] = target: T1, WDR5; settings: for binding affinity for WDR5 (in words): FPA
WDR5 [3] = target: T1, WDR5; assay: biochemical

| SMILES | WDR5 stabilization by thermal shift (in words) (WDR5 [1]) | binding affinity for WDR5 (in words) (WDR5 [2]) | further results |
| --- | --- | --- | --- |
| N#CC1(c2cc(NS(=O)(=O)c3cc(Br)cc(Cl)c3O)c(O)c(C(=O)O)c2)CCC1 [Compound 6r, 3-((5-Bromo-3-chloro-2-hydroxyphenyl)sulfonamido)-5-(1-cyanocyclobutyl)-2-hydroxybenzoic acid] | largest ΔTm | – | disruption of the association WDR5-c-MYC at the lowest concentration tested (WDR5-c-MYC): marked disruption; disruption of the association WDR5-RBBP5 at the lowest concentration tested (WDR5-RBBP5): marked disruption |
| COc1ccc(Br)cc1S(=O)(=O)Nc1cc(Cl)cc(S(C)(=O)=O)c1O [Compound 8, 5-Bromo-N-(5-chloro-2-hydroxy-3-(methylsulfonyl)phenyl)-2-methoxybenzenesulfonamide] | – | sub-micromolar affinity | – |
| CNC(=O)c1cc(C2(C#N)CCC2)cc(NS(=O)(=O)c2cc(Br)ccc2OC)c1O [Compound 9, 3-((5-Bromo-2-methoxyphenyl)sulfonamido)-5-(1-cyanocyclobutyl)-2-hydroxy-N-methylbenzamide] | – | sub-micromolar affinity | – |
| COc1ccccc1S(=O)(=O)Nc1cc(Cl)ccc1O [Compound 5a, N-(5-Chloro-2-hydroxyphenyl)-2-methoxybenzenesulfonamide] | – | all binding affinity for WDR5 is lost | – |
| O=C(O)c1cc(S(F)(F)(F)(F)F)cc(NS(=O)(=O)c2cc(Br)cc(Cl)c2O)c1O [Compound 6o, 3-((5-Bromo-3-chloro-2-hydroxyphenyl)sulfonamido)-2-hydroxy-5-(pentafluorosulfanyl)benzoic acid] | largest ΔTm | – | – |
| N#CC1(c2cc(NS(=O)(=O)c3cc(Br)cc(Cl)c3O)c(O)c(C(=O)O)c2)CCCCC1 [Compound 6t, 3-((5-Bromo-3-chloro-2-hydroxyphenyl)sulfonamido)-5-(1-cyanocyclohexyl)-2-hydroxybenzoic acid] | largest ΔTm | – | – |
| N#CC1(c2cc(NS(=O)(=O)c3cc(Br)ccc3O)c(O)c(C(=O)Nc3nc[nH]n3)c2)CCC1 [Compound 7n, 3-((5-Bromo-2-hydroxyphenyl)sulfonamido)-5-(1-cyanocyclobutyl)-2-hydroxy-N-(1H-1,2,4-triazol-3-yl)benzamide] | – | – | Kd (WDR5 [3]): 0.046 ± 0.014 µM |
| CNC(=O)c1cc(C2(C#N)CCC2)cc(NS(=O)(=O)c2cc(Br)cc(Cl)c2O)c1O [Compound 7k, 3-((5-Bromo-3-chloro-2-hydroxyphenyl)sulfonamido)-5-(1-cyanocyclobutyl)-2-hydroxy-N-methylbenzamide] | concentration-dependent response | – | – |
| O=S(=O)(Nc1cc(S(F)(F)(F)(F)F)ccc1O)c1cc(Br)ccc1O [Compound 5k, 5-Bromo-2-hydroxy-N-(2-hydroxy-5-(pentafluorosulfanyl)phenyl)benzenesulfonamide] | – | – | improved binding affinity in comparison to 5l (WDR5 [2]; FPA Kd ratio vs trifluoromethyl cyclopropane 5l): ~ 5 fold |
| COCCNC(=O)c1cc(C2(C#N)CCC2)cc(NS(=O)(=O)c2cc(Br)ccc2O)c1O [Compound 7o, 3-((5-Bromo-2-hydroxyphenyl)sulfonamido)-5-(1-cyanocyclobutyl)-2-hydroxy-N-(2-methoxyethyl)benzamide] | – | – | Kd (WDR5 [3]): 0.757 ± 0.017 µM |
